Measured values from PMC6920794, “Evaluation of Novel Chalcone-Thiosemicarbazones Derivatives as Potential Anti-Leishmania amazonensis Agents and Its HSA Binding Studies” (Biomolecules, 2019).

Tests used:
[1] = system: L. amazonensis promastigotes; test: Promastigote assay (MTT); assay type: cell-based, Leishmania amazonensis; conditions: after 48 h of culture (table title); for IC50: Leishmania amazonensis
Experimental: Leishmania amazonensis (MHOM/BR/77/LTB0016) were regularly isolated from infected mice and maintained in culture as promastigotes through weekly passages in Schneider’s medium (Sigma Aldrich, St. Louis, MO, USA) supplemented with 10% (v/v) heat-inactivated fetal calf serum, penicillin (100 UI/mL), and streptomycin (100 µg/mL) at 299K. Parasites were maintained until the 10th passage. The Animal Ethics Committee of the Oswaldo Cruz Foundation (license number L026/2015) approved this study.
Promastigotes of L. amazonensis (1 × 10^6 promastigotes/mL) in the 4th day on culture in the conditions described above were incubated with the chalcones serially diluted in culture medium (0.032% v/v DMSO at the highest concentration tested) on a 96-well cell culture plate (TPP™ test plate, Switzerland). The assayed concentrations ranged from 50 to 1.56 µM for all chalcone-thiosemicarbazones (5a–g) and for pentamidine (Sigma Aldrich, St. Louis, MO, USA). […] All compounds were analyzed in at least three experiments performed in triplicate. Pentamidine was used as the reference drug and diluted in the same concentrations used for 5a–g. The vehicle (DMSO) had no effect on the parasites.
The antileishmanial activity was evaluated by adding 22 µL of 3-(4,5-dimethylthiazol-2-yl)-2-5diphenyltetrazolium bromide (MTT) at 5 mg/mL (Sigma Aldrich, St. Louis, MO, USA) to each well. After 2 h, 80 µL of DMSO was added and the optical density was determined at a wavelength of 570 nm in a microplate reader (µQuant Bio-Tek Instruments®, Winooski). The assays were carried out in triplicate in 96-well plates (Costar, New York, USA). The inhibition percentage was estimated by the comparison with the non-treated control. The values for the inhibitory concentration for 50% of the promastigotes (IC50) were calculated by a sigmoidal model.

[2] = system: L. amazonensis axenic amastigotes; test: Axenic amastigotes assay (resazurin); assay type: cell-based; conditions: Leishmania amazonensis, 72 h of culture, table title says 48 h
Experimental: Promastigote forms of L. amazonensis (MHOM/BR/77/LTB0016) were grown to a stationary phase, washed once in phosphate buffer solution (PBS) (pH = 7.4) and adjusted to 5 × 10^6 parasites/mL in Schneider’s medium, supplemented with 20% fetal bovine solution (FBS) pH = 5.5 and maintained at 305K. After 5 days of cultivation, the rounded forms without free flagella were obtained and, after heat shock, were used in the appropriate assays. To evaluate the activity against axenic amastigotes, the parasites were incubated with increasing concentrations of the prototypes (diluted in DMSO) for 72 h at 305K. These assays were performed in triplicate in 96-well flat bottom plates (Falcon Co, Franklin Lakes, USA). The leishmanicidal activity was evaluated by adding 22 μl of resazurin to each well. After 4 h, the cell viability was measured as described above. Calculation of the IC50 values was determined in relation to the control by a sigmoidal model using GraphPad Prism 6.0 software.

[3] = system: L. amazonensis intracellular amastigotes; test: Intracellular amastigotes assay in infected macrophages; assay type: cell-based, Leishmania amazonensis; conditions: for IC50: L. amazonensis-infected murine peritoneal macrophages, 48 h of culture; for Selectivity Index (SI): SI = LD50/IC50 intracellular amastigotes
Experimental: Peritoneal macrophages were obtained BALB/c mice with cold Roswell Park Memorial Institute (RPMI) 1640 medium (Sigma Aldrich, St. Louis, MO, USA) supplemented as above. The cell suspension was adjusted to 1 × 10^6 macrophage/mL and incubated in a LAB-TEK 8-chamber slide (Nunc, Roskilde, Denmark) at 310K and 5% CO2 for 1 h. Non-adherent cells were removed and stationary-phase L. amazonensis promastigotes were added at a 3:1 parasite/macrophage ratio. The cultures were incubated for a further 4 h, and free parasites were removed. The chambers were washed, and the monolayers were incubated with the compounds for 48 h. Infected macrophages incubated only in the culture medium were used as controls to compare with the infected treated macrophages. […] The cultures were fixed in methanol and stained with the hematological system Instant Prov (Newprov®, Curitiba, Brazil). The slides were examined by light microscopy, and the number of infected macrophages and the mean number of parasites per macrophage were determined in 100 cells counted. The experiments were performed twice in triplicate. The percentage of infected macrophages was calculated by dividing the number of infected macrophages by the total number of macrophages (infected and uninfected) counted on the slides, multiplied by 100. To determine the infection index, the percentage of infected macrophages was multiplied by the mean number of parasites per macrophage. The percentage inhibition of infection was calculated by multiplying the difference between the infection index of the control and the compound by 100 and dividing by the infection index (IF) of the control using the Equation (1):IF = % infected cells × amastigotes number/total number of macrophages(1) The IC50 ± SD (SD: standard deviation) values were obtained by a sigmoidal model using Origin 6.0 with statistical error limits up to 10%. All tests were conducted in duplicate for each concentration, and two independent assays were performed.

[4] = system: murine peritoneal macrophages; test: Macrophage cytotoxicity (resazurin); assay type: cell-based
Experimental: Peritoneal macrophages from albino laboratory-bred strain (BALB/c) mice were obtained in RPMI 1640 medium at pH 7.2 (Gibco, New York, NY, USA) supplemented with 10% (v/v) heat-inactivated fetal bovine serum, 100 U/mL penicillin and 0.1 mg/mL of streptomycin and distributed (1 × 10^6 macrophages/well) in triplicate in 96-well plates (Falcon Co., Franklin Lakes, USA) and incubated for 1 h in a 5% CO2 atmosphere incubator at 310K. The supernatant was removed, and the compounds were added to the plate at concentrations from 10 µM to 50 µM. Next, the cultures were incubated for 48 h in a CO2 incubator at 310K. After incubation, the supernatant was removed and a resazurin solution (50 µM) was added to each well and incubated at 310K for 4 h. Furthermore, the fluorescence was measured using a wavelength of 560 nm for excitation and 590 nm for detection (Molecular Devices, Silicon Valley, USA). Results were expressed as the percentage of viable cells compared to the control cells treated with the highest DMSO dose used to dissolve the drugs. The 50% cytotoxic concentration (CC50) was calculated using GraphPad Prism 6.0 software (GraphPad Company, San Diego, CA, USA).

[5] = constant of substituent 4-X; cited from earlier work
[6] = Leishmania amazonensis, Peritoneal macrophage, in Mus musculus, 48 h

SMILES | IC50 [1] | IC50 [2] | IC50 ([3]; Leishmania amazonensis, Peritoneal macrophage) | Selectivity Index (SI) [3] | Macrophages LD50 ([4]; murine peritoneal macrophages, 48 h of culture) | IC50 [3] | IC50 [3, 6] | Macrophages LD50 ([4]; BALB/c, mouse, 48 h, pH 7.2) | Hammett constant σp [5] | Hansh constant π (lipophilicity) [5] | Taft constant Es [5] | molecular refractivity MR [5] | Promastigotes IC50 [1] | melting point
N=C(N)c1ccc(OCCCCCOc2ccc(C(=N)N)cc2)cc1 [Pentamidine, pentamidine, reference compound] | 4.9 ± 0.6 µM | 12.3 ± 1.17 µM | 11.1 ± 1.98 µM | 2.32 | 25.85 ± 4.06 µM | – | – | – | – | – | – | – | – | –
NC(=S)NN=C(C=Cc1ccc(F)cc1)c1ccccc1 [Compound 5d, (1E,2E)-3-(4′-fluorphenyl)-1-phenylprop-2-en-1-one thiosemicarbazone] | 13.1 ± 1.85 µM | 5.57 ± 1.15 µM | – | – | – | > 3.13 µM | 3.4 to 5.95 µM | 35.47 ± 1.38 µM | 0.15 | 0.14 | −0.46 | 0.10 | – | –
NC(=S)N/N=C(\C=C\c1ccccc1)c1ccccc1 [Compound 5a, (1E,2E)-3-(phenyl)-1-phenylprop-2-en-1-one thiosemicarbazone] | 14.7 ± 0.31 µM | 6.88 ± 1.09 µM | – | – | – | – | – | 40.98 ± 1.12 µM | 0.00 | 0.00 | 0.00 | 0.00 | – | –
Cc1ccc(/C=C/C(=N\NC(N)=S)c2ccccc2)cc1 [Compound 5b, (1E,2E)-3-(4′-methylphenyl)-1-phenylprop-2-en-1-one thiosemicarbazone] | 14.8 ± 1.92 µM | 7.08 ± 1.03 µM | – | 9.47 | – | – | 5.95 ± 0.61 µM | 56.35 ± 0.78 µM | −0.14 | 0.56 | −0.25 | 0.57 | – | –
NC(=S)N/N=C(\C=C\c1ccc(Br)cc1)c1ccccc1 [Compound 5f, (1E,2E)-3-(4′-bromophenyl)-1-phenylprop-2-en-1-one thiosemicarbazone] | 12.5 ± 0.99 µM | 4.24 ± 1.07 µM | – | – | – | – | – | 44.24 ± 4.21 µM | 0.26 | 0.86 | −1.16 | 0.89 | – | –
NC(=S)N/N=C(\C=C\c1ccc([N+](=O)[O-])cc1)c1ccccc1 [Compound 5g, (1E,2E)-3-(4′-nitrophenyl)-1-phenylprop-2-en-1-one thiosemicarbazone] | – | – | – | – | – | – | – | – | 0.81 | −0.28 | −1.01 | 0.74 | no significant activity | 188 to 190 °C
N#Cc1ccc(/C=C/C(=N\NC(N)=S)c2ccccc2)cc1 [Compound 5c, (1E,2E)-3-(4′-cyanophenyl)-1-phenylprop-2-en-1-one thiosemicarbazone] | – | – | – | – | – | – | – | – | 0.71 | −0.57 | −0.51 | 0.63 | no significant activity | 195 to 196 °C
